A short description of this data set: Evaluation of solubility in organic solvents (visual observation of complete dissolution). The format is physicochemical. As for the experimental part: [Evaluation of Solubility]
The evaluation of the solubility of the synthesized compound was conducted by the following method.
About 2-3 mg of the compound was precisely weighed, and each solvent was added to the compound such that a predetermined concentration of the solute (0.5 wt %, 0.3 wt %, 0.2 wt %, 0.1 wt %, 0.05 wt %, or 0.03 wt %) was reached. The resultant mixture was stirred for 30 minutes at a predetermined temperature, and then it was evaluated by visual appearance observation whether or not the solute (synthesized compound) was completely dissolved in the solvent, which was the result of the evaluation of the solubility. As the solvent, chloroform (boiling point 61° C.), toluene (boiling point 111° C.), xylene (boiling point 144° C.), mesitylene (boiling point 165° C.), chlorobenzene (boiling point 130° C.), para-chlorotoluene (boiling point 162° C.), and ortho-dichlorobenzene (boiling point 181° C.) were used.

Turning to `CCCCC(CC)Cc1ccc(-c2ccc(-c3c4c(c(-c5ccc(-c6ccc(CC(CC)CCCC)c(C(F)(F)F)c6)s5)c5nsnc35)N=S=N4)s2)cc1C(F)(F)F` (stereo not shown) [Compound (C31)], the “solubility (solute concentration completely dissolved)” value (shortened to “solubility”) reads like this: (1-methylnaphthalene, 25° C. (room temperature)) no less than 0.3 wt %; (chloroform, 25° C. (room temperature)) no less than 0.2 wt %; (mesitylene, 25° C.) no less than 0.3 wt %; (ortho-dichlorobenzene, 25° C.) no less than 0.3 wt %; (toluene, 25° C.) no less than 0.3 wt %.
Consider `FC(F)(F)Oc1ccc(-c2ccc(-c3c4c(c(-c5ccc(-c6ccc(OC(F)(F)F)cc6)s5)c5nsnc35)N=S=N4)s2)cc1` [Compound (RC1), 4,8-bis[5-(4-(trifluoromethoxy)phenyl)thiophene-2-yl]benzo[1,2-c:4,5-c′]bis[1,2,5]thiadiazole, reference compound], for which the “solubility” value was less than 0.03 wt % (chlorobenzene, 100° C.); less than 0.03 wt % (mesitylene, 100° C.); less than 0.03 wt % (ortho-dichlorobenzene, 100° C.); less than 0.03 wt % (toluene, 100° C.).
On to `FC(F)(F)c1ccc(-c2ccc(-c3c4c(c(-c5ccc(-c6ccc(C(F)(F)F)cc6)s5)c5nsnc35)N=S=N4)s2)cc1` [Compound (RC2), 4,8-bis[5-(4-(trifluoromethyl)phenyl)thiophene-2-yl]benzo[1,2-c:4,5-c′]bis[1,2,5]thiadiazole, reference compound], for which the “solubility” value (chlorobenzene, 100° C.) is on record as less than 0.03 wt %; the “solubility” value (mesitylene, 100° C.) is listed as less than 0.03 wt %; the “solubility” value (mesitylene, 130° C.) is less than 0.3 wt %; the “solubility” value (ortho-dichlorobenzene, 100° C.) is recorded as less than 0.03 wt %; the “solubility” value (toluene, 100° C.) is reported as less than 0.03 wt %.
Regarding `CCCCCCCCCCC(F)(F)c1ccc(-c2ccc(-c3c4c(c(-c5ccc(-c6ccc(C(F)(F)CCCCCCCCCC)cc6)s5)c5nsnc35)N=S=N4)s2)cc1` [Compound (RC3), 4,8-bis[5-(4-(1,1-difluoroundecyl)phenyl)thiophene-2-yl]benzo[1,2-c:4,5-c′]bis[1,2,5]thiadiazole, reference compound], the “solubility” value reads like this: (chlorobenzene, 60° C.) less than 0.03 wt %; (mesitylene, 60° C.) less than 0.03 wt %; (toluene, 60° C.) less than 0.03 wt %.
Consider `FC(F)(F)Sc1ccc(-c2ccc(-c3c4c(c(-c5ccc(-c6ccc(SC(F)(F)F)cc6)s5)c5nsnc35)N=S=N4)s2)cc1` [Compound (RC5), 4,8-bis[5-(4-((trifluoromethyl)thio)phenyl)thiophene-2-yl]benzo[1,2-c:4,5-c′]bis[1,2,5]thiadiazole, reference compound], for which the “solubility” value is, setting by setting: (chlorobenzene, 100° C.) less than 0.03 wt %; (mesitylene, 100° C.) less than 0.03 wt %; (mesitylene, 130° C.) less than 0.3 wt %; (ortho-dichlorobenzene, 100° C.) less than 0.03 wt %; (toluene, 100° C.) less than 0.03 wt %.
As to `FC(F)(F)Oc1ccccc1-c1ccc(-c2c3c(c(-c4ccc(-c5ccccc5OC(F)(F)F)s4)c4nsnc24)N=S=N3)s1` [Compound (RR1), 4,8-bis[5-(2-(trifluoromethoxy)phenyl)thiophene-2-yl]benzo[1,2-c:4,5-c′]bis[1,2,5]thiadiazole, reference compound], the “solubility” value reads like this: (mesitylene, 80° C.) no less than 0.1 wt %; (toluene, 80° C.) no less than 0.1 wt %.
With `FC(F)(F)c1ccccc1-c1ccc(-c2c3c(c(-c4ccc(-c5ccccc5C(F)(F)F)s4)c4nsnc24)N=S=N3)s1` [Compound (RR2), 4,8-bis[5-(2-(trifluoromethyl)phenyl)thiophene-2-yl]benzo[1,2-c:4,5-c′]bis[1,2,5]thiadiazole, reference compound], the “solubility” value by setting is: (chlorobenzene, 25° C.) no less than 0.1 wt %; (mesitylene, 25° C.) no less than 0.1 wt %; (ortho-dichlorobenzene, 25° C.) no less than 0.1 wt %; (toluene, 25° C.) no less than 0.1 wt %.

The values above are taken from patent US9978954B2, “Benzobis (thiadiazole) derivative, ink comprising same, and organic electronic device comprising same” (UBE INDUSTRIES, LTD., priority 2013, dated 2018).
